# Data published in PubChem BioAssay (NCI).
#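 These data come from cells grown in 96-well plates and exposed to compound for 48 hours at five concentrations. GI50 is the concentration that inhibits growth by half. TGI denotes the concentration required for complete inhibition of growth.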
# How the values were obtained:
# Assay in all cases: NCI anticancer screen, dose series, 48 h
# SNB-19 CNS = tested on: SNB-19 CNS
# NCI-H226 lung = tested on: NCI-H226 lung
# RPMI-8226 leukemia = tested on: RPMI-8226 leukemia
# KM12 colon = tested on: KM12 colon
# SR leukemia = tested on: SR leukemia
# UO-31 renal = tested on: UO-31 renal
# NCI-H522 lung = tested on: NCI-H522 lung
# SW-620 colon = tested on: SW-620 colon
# SF-539 CNS = tested on: SF-539 CNS
# NCI-H460 lung = tested on: NCI-H460 lung
Structure (SMILES),TGI (SNB-19 CNS),TGI (NCI-H226 lung),TGI (RPMI-8226 leukemia),TGI (KM12 colon),TGI (SR leukemia),TGI (UO-31 renal),TGI (NCI-H522 lung),TGI (SW-620 colon),TGI (SF-539 CNS),TGI (NCI-H460 lung),GI50 (SNB-19 CNS),GI50 (NCI-H226 lung),GI50 (RPMI-8226 leukemia),GI50 (KM12 colon),GI50 (SR leukemia),GI50 (UO-31 renal),GI50 (NCI-H522 lung),GI50 (SW-620 colon),GI50 (SF-539 CNS),GI50 (NCI-H460 lung)
CC1(O)CC(=O)c2c(cc3ccc(-c4c5c(c(O)c6c(O)cccc46)C(=O)CC(C)(O)C5)c(O)c3c2O)C1 (stereo not given),4.37 µM,2.16 µM,2.8 µM,0.24 µM,7.06 µM,0.726 µM,1.12 µM,18.9 µM,2.34 µM,5.64 µM,,,,,,,,,,
Cc1c2c(n(CCc3ccc(Cl)cc3)c1C)NC(c1ccccc1)C(C#N)S2(=O)=O (stereo not given),> 100 µM,> 100 µM,57.8 µM,> 100 µM,38.2 µM,> 100 µM,> 100 µM,> 100 µM,> 100 µM,> 100 µM,,,,,,,,,,
Cc1cc(N2CCCC2)nc(N(CCNc2ccnc3cc(Cl)ccc23)Cc2ccco2)n1,70.2 µM,> 100 µM,4.5 µM,> 100 µM,4.67 µM,39.8 µM,> 100 µM,81.8 µM,10.4 µM,> 100 µM,5.67 µM,3.2 µM,2.02 µM,3.86 µM,1.8 µM,2.58 µM,3.59 µM,2.6 µM,3.27 µM,2.99 µM
O=C(O)c1nc(-c2ccccc2)[nH]c1C(=O)O,25.1 µM,33.1 µM,4.14 µM,14.6 µM,2.36 µM,24.8 µM,32 µM,6.78 µM,22.7 µM,29.2 µM,,,,,,,,,,
